Test system: NF-κ B
Assay: Inhibitory activity of NF-κ B activation, luciferase reporter assay in HepG2 under TNF-α stimulation
Assay type: cell-based, human
Conditions: HepG2, TNF-α (40 ng/ml), 4 hours; for inhibition at 1 µg/mL / inhibition at 10 µg/mL: Homo sapiens; for Inhibitory Ratio of NF-κ B Activation(%) Drug Concentration 1 μg/mL / inhibition at 1 µg/mL: 1 μg/mL; for inhibition at 1 µg/mL: read-out: Inhibitory Ratio of NF-κ B Activation(%) Drug Concentration 1 μg/mL; for Inhibitory Ratio of NF-κ B Activation(%) Drug Concentration 10 μg/mL / inhibition at 10 µg/mL: 10 μg/mL; for inhibition at 10 µg/mL: read-out: Inhibitory Ratio of NF-κ B Activation(%) Drug Concentration 10 μg/mL
Experimental: Using a transfection reagent(Effectene; QIAGEN), the human hepatoma cell strain HepG2 was transfected with a plasmid(pNF κ B-Luc Reporter Plasmid; […]) which is integrated with an oligonucleotide having five tandem copies of NF-κ B binding sequences([…]) on a upstream region of firefly luciferase gene(Luc) according to the QIAGEN's protocol, and the cells were incubated for 6 to 24 hours. After the addition of TNF-α (40 ng/ml) in the presence or absence of a test compound, the cells were incubated for 4 hours, and intracellular luciferase activity was measured by using PicaGene LT (TOYO INK MFG Co., Ltd.) and a chemical luminescence measurement apparatus ([…]luor Plus; TECAN). The inhibitory ratio was measured as a ratio relative to the value of a luciferase activity in the absence of the test compound.

| Compound | Inhibitory Ratio of NF-κ B Activation(%) Drug Concentration 1 μg/mL | Inhibitory Ratio of NF-κ B Activation(%) Drug Concentration 10 μg/mL | inhibition at 1 µg/mL | inhibition at 10 µg/mL |
| --- | --- | --- | --- | --- |
| O=C(Nc1cc(C(F)(F)F)ccc1N1CCOCC1)c1cc(Cl)ccc1O [Compound No. 106] | 92.3% | 92.1% |  |  |
| COc1ccc(Oc2ccccc2)cc1NC(=O)c1cc(Cl)ccc1O [Compound No. 171] | 90.6% | 98.1% |  |  |
| O=C(Nc1cc(C(F)(F)F)cc(C(F)(F)F)c1)c1cc(C(F)(F)C(F)(F)F)ccc1O [Compound No. 26] | 93.3% | 95.4% |  |  |
| CC(C)(C)c1cc(C(=O)Nc2cc(C(F)(F)F)cc(C(F)(F)F)c2)c(O)c(C(C)(C)C)c1 [Compound No. 62] | 37.0% | 86.9% |  |  |
| O=C(Nc1cc(C(F)(F)F)cc(C(F)(F)F)c1)c1cc(N=Nc2ccc(S(=O)(=O)Nc3ccccn3)cc2)ccc1O [Compound No. 49] | 19.4% | 89.1% |  |  |
| Cc1cc(C)cc(NC(=O)c2cc(Br)ccc2O)c1 [Compound No. 137] | 86.3% | 92.6% |  |  |
| Cc1ccc(O)c(C(=O)Nc2cc(C(F)(F)F)ccc2C)c1 [Compound No. 102] | 89.3% | 98.3% |  |  |
| CC(O)c1ccc(O)c(C(=O)Nc2cc(C(F)(F)F)cc(C(F)(F)F)c2)c1 (stereo not drawn) [Compound No. 13] | 76.8% | 96.0% |  |  |
| CN(C)C(=O)c1ccc(O)c(C(=O)Nc2cc(C(F)(F)F)cc(C(F)(F)F)c2)c1 [Compound No. 38, N^3-[3,5-bis(trifluoromethyl)phenyl]-4-hydroxy-N^1,N^1-dimethylisophthalamide] |  |  | 16% | 87.1% |
| CCN(CC)S(=O)(=O)c1ccc(OC)c(NC(=O)c2cc(Cl)ccc2O)c1 [Compound No. 155] | 11.2% | 90.2% |  |  |
| CCc1sc(NC(=O)c2cc(Br)ccc2O)nc1C(C)(C)C [Compound No. 195, 5-Bromo-N-{4-[(1,1-dimethyl)ethyl]-5-ethylthiazol-2-yl}-2-hydroxybenzamide] |  |  | 90.5% | 98.1% |
| O=C(Nc1nc(-c2ccc(C(F)(F)F)cc2)cs1)c1cc(Cl)ccc1O [Compound No. 261, 5-Chloro-2-hydroxy-N-{4-[4-(trifluoromethyl)phenyl]thiazol-2-yl}benzamide] |  |  | > 99.9% |  |
| O=C(Nc1cc(Br)cc(C(F)(F)F)c1)c1cc(Cl)ccc1O [Compound No. 104] | 97.2% | 99.2% |  |  |
| CC(=O)Nc1cc(O)c(C(=O)Nc2cc(C(F)(F)F)cc(C(F)(F)F)c2)cc1Cl [Compound No. 50, 4-Acetylamino-N-[3,5-bis(trifluoromethyl)phenyl]-5-chloro-2-hydoxybenzamide] | 69.9% | 96.0% |  |  |
| O=C(Nc1cc(C(F)(F)F)cc(C(F)(F)F)c1)c1cc(-c2ccccn2)ccc1O [Compound No. 32, N-[3,5-Bis(trifluoromethyl)phenyl]-2-hydroxy-5-(pyridin-2-yl)benzamide] |  |  | 90.4% | 99% |
| O=C(Nc1cc(C(F)(F)F)cc(C(F)(F)F)c1)c1c(O)c(Cl)cc(Cl)c1Cl [Compound No. 61] | 95.1% | 97.2% |  |  |
| CC(=O)Oc1ccc(Cl)cc1C(=O)Nc1cc(C(C)(C)C)cc(C(C)(C)C)c1 [Compound No. 139] | 90.8% | 94.7% |  |  |
| CC(C)(C)c1csc(NC(=O)c2cc(Br)ccc2O)n1 [Compound No. 185, 5-Bromo-N-{4-[(1,1-dimethyl)ethyl]thiazol-2-yl}-2-hydroxybenzamide] |  |  | 88.4% | 95.2% |
| O=C(Nc1nc(-c2ccccc2)c(C(=O)NCCc2ccccc2)s1)c1cc(Br)ccc1O [Compound No. 223] | 33.3% | 60.4% |  |  |
| CC(C)NC(=O)c1sc(NC(=O)c2cc(Br)ccc2O)nc1-c1ccccc1 [Compound No. 222] | 49.6% | 91.3% |  |  |
| O=C(Nc1ccccc1)Nc1ccc(O)c(C(=O)Nc2cc(C(F)(F)F)cc(C(F)(F)F)c2)c1 [Compound No. 46] | 20.5% | 88.4% |  |  |

| Compound | Inhibitory Ratio of NF-κ B Activation(%) Drug Concentration 1 μg/mL | Inhibitory Ratio of NF-κ B Activation(%) Drug Concentration 10 μg/mL | inhibition at 1 µg/mL | inhibition at 10 µg/mL |
| --- | --- | --- | --- | --- |
| O=C(Nc1cc(C(F)(F)F)cc(C(F)(F)F)c1)c1cc(Cl)ccc1O [Compound No. 80] | 46.3% | 73.0% |  |  |
| COc1ccc(C)c(NC(=O)c2cc(Cl)ccc2O)c1 [Compound No. 160] | 69.6% | 96.5% |  |  |
| Cc1ccc(C(C)C)cc1NC(=O)c1cc(Cl)ccc1O [Compound No. 151] | 85.8% | 98.2% |  |  |
| COc1ccc(O)c(C(=O)Nc2cc(C(F)(F)F)cc(C(F)(F)F)c2)c1 [Compound No. 33] | 30.7% | 97.0% |  |  |
| CCOC(=O)c1sc(NC(=O)c2cc(-c3ccc(F)cc3F)ccc2O)nc1-c1ccccc1 [Compound No. 227] | 31.8% | 90.3% |  |  |
| N#CC(=Cc1ccc(O)c(C(=O)Nc2cc(C(F)(F)F)cc(C(F)(F)F)c2)c1)C(=O)O [Compound No. 18] | 59.7% | 98.5% |  |  |
| CC(C)(C)c1nc(NC(=O)c2cc(Br)ccc2O)sc1C#N [Compound No. 189] | 20.0% | 93.8% |  |  |
| COc1ccc(-c2csc(NC(=O)c3cc(Cl)ccc3O)n2)cc1 [Compound No. 264, 5-Chloro-2-hydroxy-N-[4-(4-methoxyphenyl)thiazol-2-yl]benzamide] |  |  | > 99.9% |  |
| Cc1ccc(C)c(NC(=O)c2cc(Cl)ccc2O)c1 [Compound No. 153] | 88.3% | 97.1% |  |  |
| COc1ccccc1Oc1ccc(C(F)(F)F)cc1NC(=O)c1cc(Cl)ccc1O [Compound No. 114] | 91.8% | 98.2% |  |  |
| O=C(Nc1cc(Cl)cc(Cl)c1)c1cc2ccccc2cc1O [Compound No. 181] |  | 95.1% |  |  |
| COC(=O)C(C#N)=Cc1ccc(O)c(C(=O)Nc2cc(C(F)(F)F)cc(C(F)(F)F)c2)c1 [Compound No. 17, 3-({N-[3,5-bis(trifluoromethyl)phenyl]carbamoyl}-4-hydroxyphenyl)-2-cyanoacrylic acid methyl ester] | 74.9% | 99.1% |  |  |
| O=C(Nc1cc(C(F)(F)F)ccc1Cl)c1cc([N+](=O)[O-])ccc1O [Compound No. 99] | 54.3% | 98.0% |  |  |
| CC(C)c1cc(Br)cc(C(=O)Nc2cc(C(F)(F)F)cc(C(F)(F)F)c2)c1O [Compound No. 257] | >99.9% |  |  |  |
| O=C(Nc1cc(C(F)(F)F)cc(C(F)(F)F)c1)c1cc(-c2cccs2)ccc1O [Compound No. 28] | 79.5% | 97.8% |  |  |
| Cc1nc(NC(=O)c2cc(Br)ccc2O)sc1-c1cccc(C(F)(F)F)c1 [Compound No. 194, 5-Bromo-N-{4-methyl-5-[3-(trifluoromethyl)phenyl]thiazol-2-yl}-2-hydroxybenzamide] |  |  |  | 71.7% |
| O=C(Nc1cc(C(F)(F)F)cc(C(F)(F)F)c1)c1cc(S(=O)(=O)Nc2cc(C(F)(F)F)cc(C(F)(F)F)c2)ccc1Cl [Compound No. 247] |  | >99.9% |  |  |
| Cc1ccc(C(F)(F)F)cc1NC(=O)c1cc(Cl)ccc1O [compound 92] | 93.8% | 97.9% |  |  |
| CCOC(=O)c1sc(NC(=O)c2cc(Cl)ccc2O)nc1-c1ccccc1 [Compound No. 218] | 80.7% | 94.2% |  |  |
| O=C(Nc1nc(-c2ccco2)c(-c2ccco2)o1)c1cc(Br)ccc1O [Compound No. 236, 5-Bromo-N-[4,5-bis(furan-2-yl)oxazol-2-yl]-2-hydroxybenzamide] |  |  | 21.4% | 56% |
| CCC(C)(C)c1ccc(Oc2ccccc2)c(NC(=O)c2cc(Cl)ccc2O)c1 [Compound No. 164] | 97.6% | 98.3% |  |  |
